From patent US20140005163A1 (NOVARTIS AG, priority 2010, published 2014)
≈ marks a conversion by molar mass, not a printed value.

Key:
[1] = test system: PKB Ser473 phosphorylation in Rat1-myr-HA-p110 beta cells; assay: Reverse protein array assay, PKB Ser473 phosphorylation in Rat1-myr-p110 beta cells; type: cell-based; conditions: 0.5 h, pAkt Ser473, 30 minutes incubation, read-out: p-PKB IC50
Outline: (§1)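 Compound exposure lasted 30 min in Rat1 cells bearing membrane-targeted HA-p110 isoforms, using 8 serial concentrations. Arrayed lysates, each spotted at four dilutions, gave relative fluorescence signals for phospho-Ser473 PKB.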

[2] = test system: PKB Ser473 phosphorylation in Rat1-myr-HA-p110 alpha cells; assay: Reverse protein array assay, PKB Ser473 phosphorylation in Rat1-myr-p110 alpha cells; type: cell-based; conditions: 0.5 h, pAkt Ser473, 30 minutes compound incubation, read-out: p-PKB IC50
Outline: as §1

[3] = target: T1, PI3K beta (Homo sapiens, UniProt P42338); assay: PI3K beta kinase assay (Kinase-Glo luminescence); type: biochemical
T1 construct: for the full-length p110-b subunit are generated and fused by overlapping PCR; p85(iSH2) fusion partner (see partner chain) (N); His tag (C); made in house; host or cells: baculovirus; Tn5 (Trichoplusia ni) or TiniPro insect cells
Outline: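 IC50 is derived by four-parameter logistic curve fitting of Kinase-Glo luminescence, which measures ATP left after a 60 min room-temperature reaction. Conditions are 25 nM His-tagged p85(iSH2)-p110β, 1 μM ATP and 10 μg/mL bovine liver phosphatidylinositol.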

[4] = test system: PKB Ser473 phosphorylation in Rat1-myr-HA-p110 delta cells; assay: Reverse protein array assay, PKB Ser473 phosphorylation in Rat1-myr-p110 delta cells; type: cell-based; conditions: read-out: p-PKB IC50
Outline: as §1

[5] = target: T2, PI3K alpha (Homo sapiens, UniProt P42336); assay: PI3K alpha kinase assay (Kinase-Glo luminescence); type: biochemical
T2 construct: p85(iSH2) fusion partner (see partner chain) (N); His tag (C); made in house; host or cells: baculovirus; Tn5 (Trichoplusia ni) or TiniPro insect cells
Outline: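 Luminescent ATP-depletion assay (Kinase-Glo) with 10 nM PI3Kα and 10 μg/mL phosphatidylinositol as lipid substrate at 1 μM ATP. Incubation lasts 60 min at room temperature.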

[6] = Solubility at pH 6.8; type: physicochemical; conditions: pH 6.8, aqueous buffer, thermodynamic from solid; read-out: solubility
Outline: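 Following the procedure of Zhou et al. (2007), compound solubility was determined at pH 6.8.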

[7] = target: T3, PI3K gamma (Homo sapiens, UniProt P48736); assay: PI3K gamma kinase assay (Kinase-Glo luminescence); type: biochemical
T3 construct: His tag (C); made in house; host or cells: baculovirus (pVL1393); Tn5 or TiniPro insect cells; construct from Roger Williams lab, MRC LMB
Procedure: In a more preferred assay, the kinase reaction is performed in a final volume of 10 μL per well of a low volume non binding CORNING, 384 well black plate (Cat. No. #3676). The final concentrations of ATP and phosphatidyl inositol (PI) in the assay are 1 μM and 10 μg/mL respectively. The reaction is started by the addition of ATP.
The components of the assay are added per well as follows:
[…] in 90% DMSO per well, in columns 1-20, 8 concentrations (1/3 and 1/3.33 serial dilution step) in single. • Low control: […] of 90% DMSO in half the wells of columns 23-24 (0.45% in final). • High control: […] of reference compound (e.g. compound of Example 7 in WO 2006/122806) in the other half of columns 23-24 (2.5 μM in final). • Standard: […] of reference compound as just mentioned diluted as the test compounds in columns 21-22 • 20 mL ‘buffer’ are prepared per assay: • 200 μL of 1M TRIS HCl pH7.5 (10 mM in final) • 60 μL of 1M MgCl2 (3 mM in final) • 500 μL of 2M NaCl (50 mM in final) • 100 μL of 10% CHAPS (0.05% in final) • 200 μL of 100 mM DTT (1 mM in final) • 18.94 mL of nanopure water • 10 mL ‘PI’ are prepared per assay: • 200 μL of 1 mg/ml L-alpha-Phosphatidylinositol (Liver Bovine, Avanti Polar Lipids Cat. No. 840042C MW=909.12) prepared in 3% OctylGlucoside (10 μg/ml in final) • 9.8 mL of ‘buffer’ • 10 mL ‘ATP’ are prepared per assay: • 6.7 μL of 3 mM stock of ATP giving a final concentration of 1 μM per well • 10 mL of ‘buffer’ • 2.5 mL of each PI3K construct are prepared per assay in ‘PI’ with the following final concentration: • 10 nM PI3K alfa EMV B1075 • 25 nM beta EMV BV949 • 10 nM delta EMV BV1060 • 150 nM gamma EMV BV950 • 5 μL of ‘PI/PI3K’ are added per well. • 5 μl ‘ATP’ are added per well to start the reaction. • The plates are then incubated at room temperature for 60 minutes (alfa, beta, delta) or 120 minutes (gamma). • The reaction is terminated by the addition of 10 μL Kinase-Glo (Promega Cat. No. #6714). • The assay plates are read after 10 minutes in Synergy 2 reader (BioTek, Vermont USA) with an integration time of 100 milliseconds and sensitivity set to 191. • Output: The High control is around 60'000 counts and the Low control is 30'000 or lower • This luminescence assay gives a useful Z′ ratio between 0.4 and 0.7
IC50 is determined by a four parameter curve fitting routine that comes along with “excel fit”. […] Alternatively, IC50 values are calculated using idbsXLfit model 204, which is a 4 parameter logistic model.

[8] = target: T4, PI3K delta (Homo sapiens, UniProt O00329); assay: PI3K delta kinase assay (Kinase-Glo luminescence); type: biochemical
T4 construct: for the full-length p110-d subunit are generated and fused by overlapping PCR; p85(iSH2) fusion partner (see partner chain) (N); His tag (C); made in house; host or cells: baculovirus; Tn5 (Trichoplusia ni) or TiniPro insect cells
Outline: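 Inhibition is derived from luminescent detection of unconsumed ATP. The reaction runs for one hour at ambient temperature and contains the δ isoform fusion protein, phosphatidylinositol substrate and low (1 μM) ATP. Eight compound concentrations are tested in single, and a 4-parameter logistic model is used to calculate IC50.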

T2 sequence (P42336 with tags, fused parts or gaps limits assumed): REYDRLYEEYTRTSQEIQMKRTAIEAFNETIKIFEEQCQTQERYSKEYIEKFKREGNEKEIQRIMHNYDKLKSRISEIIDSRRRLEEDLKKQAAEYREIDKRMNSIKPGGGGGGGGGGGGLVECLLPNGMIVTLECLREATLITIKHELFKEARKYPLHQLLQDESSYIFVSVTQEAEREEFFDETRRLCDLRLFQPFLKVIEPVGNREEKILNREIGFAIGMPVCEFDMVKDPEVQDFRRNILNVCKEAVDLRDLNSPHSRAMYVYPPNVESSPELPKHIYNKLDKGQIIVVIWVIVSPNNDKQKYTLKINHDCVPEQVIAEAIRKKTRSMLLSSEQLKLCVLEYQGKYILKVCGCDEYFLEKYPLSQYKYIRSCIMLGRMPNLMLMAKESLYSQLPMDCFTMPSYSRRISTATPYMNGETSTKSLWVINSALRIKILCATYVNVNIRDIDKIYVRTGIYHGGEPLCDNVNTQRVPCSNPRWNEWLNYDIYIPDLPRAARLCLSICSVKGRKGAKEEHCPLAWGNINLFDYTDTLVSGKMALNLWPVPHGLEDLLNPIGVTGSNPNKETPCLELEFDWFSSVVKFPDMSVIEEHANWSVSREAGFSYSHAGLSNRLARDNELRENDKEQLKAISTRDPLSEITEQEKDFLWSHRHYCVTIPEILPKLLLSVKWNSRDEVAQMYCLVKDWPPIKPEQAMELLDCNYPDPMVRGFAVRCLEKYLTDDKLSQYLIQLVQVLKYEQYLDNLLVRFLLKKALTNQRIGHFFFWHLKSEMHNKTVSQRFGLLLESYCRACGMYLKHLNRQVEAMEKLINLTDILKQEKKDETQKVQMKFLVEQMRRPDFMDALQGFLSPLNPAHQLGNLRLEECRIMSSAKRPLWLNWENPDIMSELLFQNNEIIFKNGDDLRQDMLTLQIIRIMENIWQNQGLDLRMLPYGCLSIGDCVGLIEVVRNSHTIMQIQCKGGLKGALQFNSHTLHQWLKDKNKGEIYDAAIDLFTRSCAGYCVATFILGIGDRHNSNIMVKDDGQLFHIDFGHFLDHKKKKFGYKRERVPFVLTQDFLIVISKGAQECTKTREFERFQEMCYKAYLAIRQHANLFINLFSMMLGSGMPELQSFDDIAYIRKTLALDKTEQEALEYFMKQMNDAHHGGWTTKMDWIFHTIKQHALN
T4 sequence (O00329 with tags, fused parts or gaps limits assumed): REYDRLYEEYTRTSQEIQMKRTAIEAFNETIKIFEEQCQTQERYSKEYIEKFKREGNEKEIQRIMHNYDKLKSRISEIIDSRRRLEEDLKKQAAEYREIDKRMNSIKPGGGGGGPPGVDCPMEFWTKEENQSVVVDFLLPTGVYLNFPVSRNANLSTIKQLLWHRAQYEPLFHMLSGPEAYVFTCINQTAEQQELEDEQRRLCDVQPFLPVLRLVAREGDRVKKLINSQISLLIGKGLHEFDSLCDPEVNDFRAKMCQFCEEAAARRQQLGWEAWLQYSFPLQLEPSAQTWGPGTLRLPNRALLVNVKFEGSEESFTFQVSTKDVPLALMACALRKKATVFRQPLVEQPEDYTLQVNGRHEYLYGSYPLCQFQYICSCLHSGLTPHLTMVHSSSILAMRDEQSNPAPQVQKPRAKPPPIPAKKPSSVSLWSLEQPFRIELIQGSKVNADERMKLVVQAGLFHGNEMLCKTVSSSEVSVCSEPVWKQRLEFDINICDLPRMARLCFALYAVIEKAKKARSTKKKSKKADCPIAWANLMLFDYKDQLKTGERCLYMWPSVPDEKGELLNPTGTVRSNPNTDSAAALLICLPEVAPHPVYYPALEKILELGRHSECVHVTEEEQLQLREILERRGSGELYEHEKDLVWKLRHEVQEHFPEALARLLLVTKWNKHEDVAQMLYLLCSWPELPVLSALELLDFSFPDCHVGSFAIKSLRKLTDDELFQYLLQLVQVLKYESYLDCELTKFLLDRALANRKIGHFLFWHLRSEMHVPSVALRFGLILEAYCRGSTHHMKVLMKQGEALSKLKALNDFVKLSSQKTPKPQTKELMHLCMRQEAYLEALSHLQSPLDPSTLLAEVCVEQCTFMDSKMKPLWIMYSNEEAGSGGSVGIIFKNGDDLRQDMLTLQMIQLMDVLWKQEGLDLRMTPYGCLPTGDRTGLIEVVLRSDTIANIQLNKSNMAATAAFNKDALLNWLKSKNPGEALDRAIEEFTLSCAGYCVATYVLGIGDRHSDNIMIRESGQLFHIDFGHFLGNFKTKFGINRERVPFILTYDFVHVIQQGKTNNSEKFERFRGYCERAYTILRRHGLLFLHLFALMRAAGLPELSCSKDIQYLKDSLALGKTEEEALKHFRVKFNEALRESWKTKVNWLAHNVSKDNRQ
T1 sequence (P42338 with tags, fused parts or gaps limits assumed): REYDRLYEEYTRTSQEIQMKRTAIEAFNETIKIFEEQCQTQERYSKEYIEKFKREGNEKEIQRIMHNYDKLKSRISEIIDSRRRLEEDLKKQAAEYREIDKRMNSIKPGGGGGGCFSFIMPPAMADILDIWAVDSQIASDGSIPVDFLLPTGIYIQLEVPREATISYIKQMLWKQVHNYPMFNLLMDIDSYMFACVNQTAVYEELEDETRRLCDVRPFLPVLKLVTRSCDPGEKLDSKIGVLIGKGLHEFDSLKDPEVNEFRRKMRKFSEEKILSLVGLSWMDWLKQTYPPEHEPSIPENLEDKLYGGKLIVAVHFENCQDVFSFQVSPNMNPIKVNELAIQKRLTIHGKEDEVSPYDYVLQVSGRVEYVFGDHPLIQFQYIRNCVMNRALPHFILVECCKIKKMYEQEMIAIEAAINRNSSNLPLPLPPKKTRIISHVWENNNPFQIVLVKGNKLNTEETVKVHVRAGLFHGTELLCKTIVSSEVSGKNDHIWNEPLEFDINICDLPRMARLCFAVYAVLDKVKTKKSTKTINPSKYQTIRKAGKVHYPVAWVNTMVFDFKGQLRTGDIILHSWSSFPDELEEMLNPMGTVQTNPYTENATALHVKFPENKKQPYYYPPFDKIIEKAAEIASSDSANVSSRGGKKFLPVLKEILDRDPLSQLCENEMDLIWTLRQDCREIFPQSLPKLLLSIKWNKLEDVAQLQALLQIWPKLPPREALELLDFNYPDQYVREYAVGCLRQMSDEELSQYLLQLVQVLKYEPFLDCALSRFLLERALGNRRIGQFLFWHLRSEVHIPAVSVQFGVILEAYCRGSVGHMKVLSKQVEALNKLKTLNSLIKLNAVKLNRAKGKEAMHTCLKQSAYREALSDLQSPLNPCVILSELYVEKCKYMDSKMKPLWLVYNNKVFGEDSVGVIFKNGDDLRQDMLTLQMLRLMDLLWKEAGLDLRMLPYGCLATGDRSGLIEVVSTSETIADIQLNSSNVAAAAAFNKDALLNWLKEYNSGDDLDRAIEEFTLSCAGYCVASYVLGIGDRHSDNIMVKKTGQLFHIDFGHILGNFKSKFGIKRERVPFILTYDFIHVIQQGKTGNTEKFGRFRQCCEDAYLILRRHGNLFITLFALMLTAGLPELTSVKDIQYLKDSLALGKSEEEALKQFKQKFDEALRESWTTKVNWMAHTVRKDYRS
T3 sequence (P48736 144-1102 limits assumed): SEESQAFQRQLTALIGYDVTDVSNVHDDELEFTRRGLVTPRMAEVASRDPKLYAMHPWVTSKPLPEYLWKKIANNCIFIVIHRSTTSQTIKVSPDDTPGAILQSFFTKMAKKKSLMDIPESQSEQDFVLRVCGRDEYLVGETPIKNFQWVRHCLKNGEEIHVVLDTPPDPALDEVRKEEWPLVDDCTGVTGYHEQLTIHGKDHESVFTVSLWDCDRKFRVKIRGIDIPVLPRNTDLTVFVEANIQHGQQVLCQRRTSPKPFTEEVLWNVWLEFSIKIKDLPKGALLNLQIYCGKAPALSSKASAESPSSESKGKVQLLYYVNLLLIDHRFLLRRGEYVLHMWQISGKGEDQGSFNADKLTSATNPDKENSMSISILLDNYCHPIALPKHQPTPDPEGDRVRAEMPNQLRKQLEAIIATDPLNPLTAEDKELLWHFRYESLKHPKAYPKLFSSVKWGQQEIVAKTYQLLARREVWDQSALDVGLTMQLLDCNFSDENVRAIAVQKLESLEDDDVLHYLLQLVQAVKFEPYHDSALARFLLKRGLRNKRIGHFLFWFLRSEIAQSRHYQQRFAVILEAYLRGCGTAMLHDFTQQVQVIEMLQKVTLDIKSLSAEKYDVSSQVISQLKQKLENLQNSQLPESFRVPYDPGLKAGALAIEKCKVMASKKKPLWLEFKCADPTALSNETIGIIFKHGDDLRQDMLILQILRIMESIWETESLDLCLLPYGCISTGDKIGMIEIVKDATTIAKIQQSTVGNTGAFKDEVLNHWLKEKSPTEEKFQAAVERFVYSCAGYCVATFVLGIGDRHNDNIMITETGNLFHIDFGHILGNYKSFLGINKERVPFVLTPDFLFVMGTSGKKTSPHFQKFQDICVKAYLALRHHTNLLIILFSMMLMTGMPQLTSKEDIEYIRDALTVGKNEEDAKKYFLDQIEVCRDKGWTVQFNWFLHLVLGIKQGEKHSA

Structure (SMILES) | IC50 [1] [nM] | IC50 [2] [nM] | IC50 [3] [nM] | IC50 [4] [nM] | IC50 [5] [nM] | solubility [6] [µg/mL] | IC50 [7] [nM] | IC50 [8] [nM]
COc1ccc(-c2ccc3ncc4c(c3c2)n(-c2c(C)cnn2C)c(=O)n4C)cc1OC [Example 1.7, 8-(3,4-Dimethoxy-phenyl)-1-(2,4-dimethyl-2H-pyrazol-3-yl)-3-methyl-1,3-dihydro-imidazo[4,5-c]quinolin-2-one] | 147 | 82 | 152 | 249 | 59 | 6 (≈ 14 µM) | 120 | 169
COc1ccc(-c2ccc3ncc4c(c3c2)n(-c2c(C)cnn2C)c(=O)n4C)cn1 [Example 2.1, 1-(2,4-Dimethyl-2H-pyrazol-3-yl)-8-(6-methoxy-pyridin-3-yl)-3-methyl-1,3-dihydro-imidazo[4,5-c]quinolin-2-one] | 795 | 552 | 241 | 946 | 94 | 8 (≈ 20 µM) | 140 | 432
Cc1nn(C)c(C)c1-n1c(=O)n(C)c2cnc3ccc(-c4cccnc4)cc3c21 [Example 10.1, 3-Methyl-8-pyridin-3-yl-1-(1,3,5-trimethyl-1H-pyrazol-4-yl)-1,3-dihydro-imidazo[4,5-c]quinolin-2-one] | 937 | 594 | 799 | 1630 | 136 | > 384 | 273 | 292
Cc1nn(C)c(C)c1-n1c(=O)n(C)c2cnc3ccc(-c4cccc(S(=O)(=O)N(C)C)c4)cc3c21 [Example 53.2, N,N-Dimethyl-3-[3-methyl-2-oxo-1-(1,3,5-trimethyl-1H-pyrazol-4-yl)-2,3-dihydro-1H-imidazo[4,5-c]quinolin-8-yl]-benzenesulfonamide] | 634 | 375 | 843 | 672 | 94 | 40 (≈ 81.5 µM) | 183 | 93
CCOc1cncc(-c2ccc3ncc4c(c3c2)n(-c2c(C)nn(C)c2C)c(=O)n4C)c1 [Example 56.3, 8-(5-Ethoxy-pyridin-3-yl)-3-methyl-1-(1,3,5-trimethyl-1H-pyrazol-4-yl)-1,3-dihydro-imidazo[4,5-c]quinolin-2-one] |  | 304 | 228 |  | 82 | 300 (≈ 700 µM) | 257 | 129
